Measured values published in ChEMBL document CHEMBL1123890, “Combined analgesic/neuroleptic activity in N-butyrophenone prodine-like compounds” (J Med Chem, 1987).
Activity calls are given as the source filed them. No cut-off for these calls is given here.

Experiments:
[1] = target: D(1A) dopamine receptor (Rattus norvegicus, UniProt P18901); experiment: Inhibitory concentration against rat striatal dopamine (D1) sensitive adenylate cyclase activity; type: functional
[2] = system: Mus musculus; experiment: In vivo analgesic activity in mice after subcutaneous administration by hot plate assay method.; type: functional; conditions: sc
[3] = target: Opioid receptor (Rattus norvegicus, UniProt P33533+P34975+P33535); experiment: Ability to inhibit the specific binding of [3H]- dihydromorphine to opiate receptors in rat brain membrane preparation by 50%; type: cell membranes
[4] = species: Rattus norvegicus; experiment: The dose required to reduce the number of apomorphine induced rotation by 50% in rats with monolateral lesion of nigrostriatal tracts; type: functional; conditions: Nigrostriatal tract
[5] = target: D(2) dopamine receptor (Rattus norvegicus, UniProt P61169); experiment: Ability to inhibit the specific binding of [3H]- spiroperidol to Dopamine receptor D2 in rat striatal membrane preparation by 50%; type: cell membranes, Striatum
[6] = system: Mus musculus; experiment: In vivo analgesic activity in mice after subcutaneous administration by hot plate assay method; inactive at 25 mg; type: functional, organism-based
[7] = system: Mus musculus; experiment: In vivo analgesic activity in mice after subcutaneous administration by hot plate assay method; type: functional; conditions: sc

D(2) dopamine receptor, sequence (P61169 whole entry): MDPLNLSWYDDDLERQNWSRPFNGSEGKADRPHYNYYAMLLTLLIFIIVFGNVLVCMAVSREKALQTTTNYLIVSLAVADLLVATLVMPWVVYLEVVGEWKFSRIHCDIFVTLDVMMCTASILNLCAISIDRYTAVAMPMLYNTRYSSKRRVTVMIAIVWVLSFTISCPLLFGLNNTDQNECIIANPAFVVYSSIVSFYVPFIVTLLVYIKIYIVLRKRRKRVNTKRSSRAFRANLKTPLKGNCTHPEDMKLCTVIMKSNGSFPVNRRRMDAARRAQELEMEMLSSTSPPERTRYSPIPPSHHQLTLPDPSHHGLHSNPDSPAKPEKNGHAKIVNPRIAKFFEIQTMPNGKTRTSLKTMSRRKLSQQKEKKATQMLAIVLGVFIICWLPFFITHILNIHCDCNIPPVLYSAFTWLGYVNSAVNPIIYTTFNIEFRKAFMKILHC
D(1A) dopamine receptor, sequence (P18901 whole entry): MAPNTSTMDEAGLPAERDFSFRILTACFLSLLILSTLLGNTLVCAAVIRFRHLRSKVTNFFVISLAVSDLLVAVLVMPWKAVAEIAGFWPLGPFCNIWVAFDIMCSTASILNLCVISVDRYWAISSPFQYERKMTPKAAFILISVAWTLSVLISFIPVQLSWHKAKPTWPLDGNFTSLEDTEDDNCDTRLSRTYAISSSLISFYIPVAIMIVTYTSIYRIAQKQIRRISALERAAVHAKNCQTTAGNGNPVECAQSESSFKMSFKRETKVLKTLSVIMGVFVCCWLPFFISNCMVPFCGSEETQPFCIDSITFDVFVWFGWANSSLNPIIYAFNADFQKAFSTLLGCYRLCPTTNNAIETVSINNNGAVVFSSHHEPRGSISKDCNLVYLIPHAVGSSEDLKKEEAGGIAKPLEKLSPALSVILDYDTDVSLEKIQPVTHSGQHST

Structure (SMILES) | IC50 [1] | ED50 [2] | IC50 [3] | ED50 [4] | IC50 [5] | ED50 [6] | ED50 [7]
C[C@@H]1CN(CCCC(=O)c2ccc(F)cc2)CCC1(O)c1ccccc1 (some centres not stated) | 2650 nM | > 5 mg/kg | > 10000 nM | 0.93 mg/kg |  |  | 
O=C(CCCN1CCC(O)CC1)c1ccc(F)cc1 |  |  | 5500 nM | 5.84 mg/kg | > 5000 nM | inactive | 
CCC(=O)OC1(c2ccccc2)CCN(CCCC(=O)c2ccc(F)cc2)C[C@H]1C (some centres not stated) | 3200 nM |  | 8.67 nM | 1.59 mg/kg | 46.9 nM |  | 0.65 mg/kg
O=C(CCCN1CCC(O)(c2ccccc2)CC1)c1ccc(F)cc1 | 2800 nM | > 5 mg/kg | 3215 nM | 0.35 mg/kg | 47.1 nM |  | 
CN1CC[C@]23c4c5ccc(O)c4O[C@H]2[C@@H](O)C=C[C@H]3[C@H]1C5.Cl [MORPHINE HYDROCHLORIDE] |  | 1.2 mg/kg |  |  |  |  | 
CN1CCc2cccc3c2[C@H]1Cc1ccc(O)c(O)c1-3 [APOMORPHINE] |  |  | 302 nM |  |  |  | 
CCC(=O)OC1CCN(CCCC(=O)c2ccc(F)cc2)CC1 |  |  | 598 nM | 4.82 mg/kg | > 50000 nM |  | 
CCC(=O)OC1(c2ccccc2)CCN(CCCC(=O)c2ccc(F)cc2)C[C@@H]1C (some centres not stated) | 2600 nM |  | 3.33 nM | 0.22 mg/kg | 33.5 nM |  | 0.23 mg/kg
O=C(CCCN1CCC(c2ccccc2)CC1)c1ccc(F)cc1 | 7500 nM | 5 mg/kg | > 10000 nM | 1.31 mg/kg | 69.9 nM |  | 
CCC(=O)OC1(c2ccccc2)CCN(CCCC(=O)c2ccc(F)cc2)CC1 | 2400 nM |  | 2.96 nM | 0.2 mg/kg | 28.8 nM |  | 0.32 mg/kg
C[C@H]1CN(CCCC(=O)c2ccc(F)cc2)CCC1(O)c1ccccc1 (some centres not stated) | 1650 nM | > 5 mg/kg | > 10000 nM | 1.54 mg/kg |  |  | 
